The record followed here is article PMC9301957 (ACS Omega, 2022).

The test system of one assay is AKT. The assay can be described thus: AKT ELISA, downstream signaling pathway in HCT-116 cells. The assay is classed as cell-based, human. As to conditions: compound at its IC50, untreated control 45.39 ng/mL.
In another assay the test system is PI3K. The assay can be described thus: PI3K ELISA, downstream signaling pathway in HCT-116 cells. The assay is classed as cell-based, human. Conditions: compound at its IC50, untreated control 6.64 ng/mL.
The subject of a further assay is mTOR. The assay can be described thus: mTOR ELISA, downstream signaling pathway in HCT-116 cells. The class given is cell-based, human. As to conditions: compound at its IC50, untreated control 86.39 ng/mL.
A further assay deals with EGFR (Homo sapiens, UniProt P00533). The assay can be described thus: EGFR protein kinase. The class given is biochemical. As to conditions: mean ± SD of three replicates; for inhibition at 10 µM: read-out: autophosphorylation percentage inhibition at conc (10 μM), 10 μM.
Chain of EGFR (P00533 25-1210): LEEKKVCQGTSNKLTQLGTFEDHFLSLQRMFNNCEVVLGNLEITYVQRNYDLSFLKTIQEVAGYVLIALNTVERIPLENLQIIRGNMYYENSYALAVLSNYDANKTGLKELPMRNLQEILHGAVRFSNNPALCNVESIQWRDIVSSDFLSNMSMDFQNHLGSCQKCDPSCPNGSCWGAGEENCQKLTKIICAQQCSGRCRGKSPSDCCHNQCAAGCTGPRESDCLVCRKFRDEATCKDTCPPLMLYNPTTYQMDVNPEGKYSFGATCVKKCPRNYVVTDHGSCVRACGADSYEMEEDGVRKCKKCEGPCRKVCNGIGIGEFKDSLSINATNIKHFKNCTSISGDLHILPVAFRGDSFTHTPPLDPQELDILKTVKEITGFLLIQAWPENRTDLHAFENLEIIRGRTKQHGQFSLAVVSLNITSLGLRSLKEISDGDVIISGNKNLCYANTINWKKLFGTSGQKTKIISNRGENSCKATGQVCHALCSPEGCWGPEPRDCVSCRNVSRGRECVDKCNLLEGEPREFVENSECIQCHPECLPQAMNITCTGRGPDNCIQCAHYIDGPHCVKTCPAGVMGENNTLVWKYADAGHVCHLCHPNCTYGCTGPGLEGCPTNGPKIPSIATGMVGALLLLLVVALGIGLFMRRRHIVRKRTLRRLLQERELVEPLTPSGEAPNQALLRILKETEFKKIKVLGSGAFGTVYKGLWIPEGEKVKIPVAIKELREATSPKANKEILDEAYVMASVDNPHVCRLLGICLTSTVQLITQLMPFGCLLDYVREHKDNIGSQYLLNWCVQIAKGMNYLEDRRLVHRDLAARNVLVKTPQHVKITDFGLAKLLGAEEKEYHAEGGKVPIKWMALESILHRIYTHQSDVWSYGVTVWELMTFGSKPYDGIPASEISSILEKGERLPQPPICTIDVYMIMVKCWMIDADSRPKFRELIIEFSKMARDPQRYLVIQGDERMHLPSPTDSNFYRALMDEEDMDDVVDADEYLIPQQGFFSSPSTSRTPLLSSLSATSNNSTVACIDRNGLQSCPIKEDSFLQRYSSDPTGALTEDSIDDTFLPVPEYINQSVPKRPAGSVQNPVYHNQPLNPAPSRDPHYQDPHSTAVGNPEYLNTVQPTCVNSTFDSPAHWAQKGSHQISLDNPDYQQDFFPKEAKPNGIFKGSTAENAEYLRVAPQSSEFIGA

As for `Cc1cc(C)n(-c2nc(Nc3ccc(Br)cc3)nc(N3CCOCC3)n2)n1` [Compound 4f, N-(4-Bromophenyl)-4-(3,5-dimethyl-1H-pyrazol-1-yl)-6-morpholino-1,3,5-triazin-2-amine], the “AKT concentration in treated HCT-116 cells” value in the assay on AKT was determined as 12.35 ng/mL. For the same compound, in the assay on PI3K, the “PI3K concentration in treated HCT-116 cells” value is recorded as 1.24 ng/mL. The “mTOR concentration in treated HCT-116 cells” value with mTOR stood at 34.36 ng/mL.

Consider `Cc1cc(C)n(-c2nc(Nc3ccc(Cl)cc3)nc(-n3nc(C)cc3C)n2)n1` [Compound 5c, N-(4-chlorophenyl)-4,6-bis(3,5-dimethyl-1H-pyrazol-1-yl)-1,3,5-triazin-2-amine], for which, at EGFR, the “autophosphorylation percentage inhibition at conc (10 μM)” value came out at 69.68 ± 2.01% and the inhibition at 10 µM was found to be 70%.

On to `COc1ccc(Nc2nc(-n3nc(C)cc3C)nc(-n3nc(C)cc3C)n2)cc1` [Compound 5d, 4,6-bis(3,5-dimethyl-1H-pyrazol-1-yl)-N-(4-methoxyphenyl)-1,3,5-triazin-2-amine], for which, on EGFR, the “autophosphorylation percentage inhibition at conc (10 μM)” value is 74.68 ± 2.47% and the inhibition at 10 µM worked out at 74.7%.
